Details: 313.15 K, Liquid, Vibrating tube method

FC(C(F)(F)F)C(F)(F)F [1,1,1,2,3,3,3-heptafluoropropane]
Details	mass density [kg/m3]
24813 kPa	1470.8
24848 kPa	1470.8
24899 kPa	1471.1
24951 kPa	1471.3
24991 kPa	1471.5
25031 kPa	1471.7
25225 kPa	1472.4
25266 kPa	1472.5
25303 kPa	1472.6
25346 kPa	1472.9
25382 kPa	1473
25428 kPa	1473.2
25464 kPa	1473.3
27024 kPa	1479.1
27078 kPa	1479.5
27113 kPa	1479.5
27168 kPa	1479.8
27215 kPa	1479.9
27250 kPa	1480.2
27333 kPa	1480.4
27378 kPa	1480.4
27415 kPa	1480.8
27452 kPa	1480.9
27512 kPa	1481.1
27562 kPa	1481.4
27616 kPa	1481.6
27789 kPa	1482.1
27894 kPa	1482.6
27923 kPa	1482.7
27959 kPa	1482.7
27997 kPa	1482.8
28031 kPa	1483
28065 kPa	1483.1
28094 kPa	1483.2
28137 kPa	1483.5
28166 kPa	1483.6
28213 kPa	1483.6
28253 kPa	1483.8
28282 kPa	1484
28311 kPa	1484
28349 kPa	1484.3
28389 kPa	1484.3
28424 kPa	1484.5
28465 kPa	1484.6
28499 kPa	1484.8
28538 kPa	1484.9
28567 kPa	1485
28613 kPa	1485.2
28643 kPa	1485.2
28674 kPa	1485.3
28717 kPa	1485.6
28761 kPa	1485.7
29100 kPa	1487
29135 kPa	1487
29166 kPa	1487.2
29208 kPa	1487.3
29239 kPa	1487.5
29269 kPa	1487.5
29305 kPa	1487.6
29341 kPa	1487.9
29381 kPa	1487.9
29416 kPa	1488
29450 kPa	1488.1
29496 kPa	1488.3
29525 kPa	1488.6
29570 kPa	1488.6
29610 kPa	1488.7
31429 kPa	1495.1
31477 kPa	1495.4
31513 kPa	1495.4
31554 kPa	1495.6
31782 kPa	1496.5
31819 kPa	1496.4
31856 kPa	1496.6
31894 kPa	1496.7
31931 kPa	1496.9
31964 kPa	1497
32008 kPa	1497.3
32040 kPa	1497.3
32094 kPa	1497.4
32170 kPa	1497.7
32235 kPa	1497.9
32288 kPa	1498.1
32326 kPa	1498.2
32700 kPa	1499.5
33062 kPa	1500.7
33127 kPa	1500.8
33176 kPa	1501.1
33220 kPa	1501.2
33258 kPa	1501.4
33290 kPa	1501.5
33332 kPa	1501.7
33375 kPa	1501.7
33408 kPa	1501.8
33462 kPa	1501.9
33502 kPa	1502.1
33551 kPa	1502.5
33585 kPa	1502.3
33640 kPa	1502.6
33684 kPa	1502.6
33729 kPa	1502.8
33763 kPa	1503
33807 kPa	1503.2

Source: the NIST ThermoML archive (doi:10.1021/je700260f)
